We go through 44 compounds from the Deep4Chem optical property database.

The series can be described thus: solvent given as SMILES.

Compound `CC(=O)Nc1ccc2c(c1)c(=O)c1cc(NC(C)=O)ccc1n2CCCCCC(=O)O` yielded an emission maximum (in O) of 463 nm.
`N#Cc1cc(-n2c3ccccc3c3ccccc32)c(-n2c3ccccc3c3ccccc32)cc1-c1cc(-n2c3ccccc3c3ccccc32)c(-n2c3ccccc3c3ccccc32)cc1C#N`: the emission maximum (in Cc1ccccc1) was 458 nm.
`CCOC(=O)c1ccc(C2CC(c3cccc4ccccc34)=NN2c2ccc(C#N)cc2)cc1` (stereo unspecified) registered an emission maximum (in ClCCl) of 430 nm.
With `CC[NH+](CC)c1ccc(-c2nc3c(nc2-c2ccc(B(c4c(C)cc(C)cc4C)c4c(C)cc(C)cc4C)cc2)c2ccccc2n3C)cc1`, the emission maximum (in C1CCOC1) is 428.33 nm.
`CCN(CC)c1ccc2cc(C#N)/c(=N\C(=O)c3ccc(F)cc3)oc2c1`: the emission maximum by setting is: (in CCO) 533 nm; (in ClCCl) 507 nm.
With `COc1ccc2cc(-c3cccc(-c4cc5ccc(OC)cc5oc4=O)c3)c(=O)oc2c1`, the emission maximum (in ClC(Cl)Cl) turned out to be 426 nm.
`COc1ccc(-n2c3ccccc3c3cc(C=C(C#N)C#N)ccc32)cc1`: the emission maximum (in C1CCOC1) worked out at 499 nm; the emission maximum (in CC#N) is given as 536 nm; the emission maximum (in CC(C)=O) is 525 nm; the emission maximum (in CCOC(C)=O) worked out at 495 nm; the emission maximum (in CO) was determined as 534 nm; the emission maximum (in CS(C)=O) amounted to 547 nm. For the same compound, the emission maximum reads like this: (in Cc1ccccc1) 450 nm; (in ClC(Cl)Cl) 511 nm.
`COc1ccc(-c2csc(/C(C#N)=C/c3ccc(Cl)cc3Cl)n2)cc1` displayed an emission maximum (in CC#N) of 557 nm.
On to `CCCCCCn1c2cc(C=C(C#N)C#N)sc2c2sc3c(sc4c5sc(C=C(C#N)C#N)cc5n(CCCCCC)c43)c21`, for which the emission maximum (in ClCCl) was 620 nm.
Turning to `CN1/C(=C/C=C(/C=C/c2sc3ccccc3[n+]2C)c2ccc(C(F)(F)F)cc2)Sc2ccccc21`, the emission maximum was 678 nm (in CCO), 676 nm (in CO), 668 nm (in CS(C)=O) and 659 nm (in O).
For the compound `CCN(CC)c1ccc2cc(/C=C(\C#N)c3nc4ccccc4s3)c(=O)oc2c1`, the emission maximum by setting is: (in C1COCCO1) 570 nm; (in CC#N) 596 nm; (in CCO) 594 nm; (in CCOC(C)=O) 576 nm; (in CN(C)C=O) 605 nm; (in CO) 598 nm. Moreover, the emission maximum is, setting by setting: (in CS(C)=O) 613 nm; (in Cc1ccccc1) 567 nm; (in ClCCl) 580 nm.
Take `FC(F)(F)c1ccc2oc3nc4oc5ccc(N(c6ccccc6)c6ccccc6)cc5c4cc3c2c1`: the emission maximum (in ClC(Cl)Cl) came out at 487 nm.
Consider `C[n+]1ccnc(/C=C/c2ccc(N(c3ccccc3)c3ccc(/C=C/c4c[n+](C)ccn4)cc3)cc2)c1`, for which the emission maximum reads like this: (in CS(C)=O) 530 nm; (in OCC(O)CO) 690 nm.
Turning to `FC(F)(F)c1ccc(-n2c(-c3ccc(N(c4ccc(-c5ccc(N(c6ccc(-c7nc8c9ccccc9c9ccccc9c8n7-c7ccc(C(F)(F)F)cc7)cc6)c6ccc(-c7nc8c9ccccc9c9ccccc9c8n7-c7ccc(C(F)(F)F)cc7)cc6)cc5)cc4)c4ccc(-c5nc6c7ccccc7c7ccccc7c6n5-c5ccc(C(F)(F)F)cc5)cc4)cc3)nc3c4ccccc4c4ccccc4c32)cc1`, under “in ClCCl”, the emission maximum was 442 nm.
Take `Cn1c(=O)cc(C(=O)c2ccccc2)c2sc(-c3ccc(N(c4ccccc4)c4ccccc4)cc3)cc21`: the emission maximum runs as follows: (in CC#N) 504 nm; (in ClCCl) 635 nm.
For `Clc1ccc2nc3cc4ccccc4cc3c(-c3ccccc3)c2c1`, for the setting “in ClCCl”, the emission maximum came out at 527 nm.
For `C(=C(c1ccccc1)c1ccccc1)c1ccc(-c2cc(-c3ccc(C=C(c4ccccc4)c4ccccc4)cc3)cc(-c3ccc(C=C(c4ccccc4)c4ccccc4)cc3)c2)cc1`, the emission maximum (in C1CCOC1) is reported as 446 nm.
Consider `Cc1ccc(C2=C3C=CC(c4ccccc4)=[N+]3[B-](F)(F)n3c2ccc3-c2ccccc2)cc1`, for which the emission maximum reads like this: (in C1CCCCC1) 585 nm; (in C1CCOC1) 586 nm; (in C1COCCO1) 587 nm; (in CCOC(C)=O) 583 nm; (in CO) 582 nm; (in Cc1ccccc1) 589 nm. The emission maximum (in ClC(Cl)Cl) was 588 nm.
With `CCCCCCc1ccc(-n2c3[n+](c4c5ccccc5c5ccccc5c42)[B-](C)(C)c2cc(N(c4ccccc4)c4ccccc4)ccc2-3)cc1`, the emission maximum is, setting by setting: (in C1CCOC1) 435 nm; (in CC#N) 446 nm; (in Cc1ccccc1) 428 nm; (in ClCCl) 437 nm.
Take `Cc1cc(O)c(C(=O)/C=C/c2ccccc2O)c(=O)o1`: the emission maximum is, setting by setting: (in CC#N) 510 nm; (in ClCCl) 477 nm.
With `O=S(=O)(c1ccccc1)c1ccc(-n2c3ccccc3c3c2c2ccccc2n3-c2ccccc2)cc1`, the emission maximum (in Cc1ccccc1) came to 476 nm.
Where the note is “in ClCCl”, `CCOC(=O)c1c(-c2cc3ccccc3oc2=O)nn(-c2ccccc2)c1C(=O)OCC` showed an emission maximum of 401 nm.
Where the note is “in ClCCl”, `C[Si]1(C)c2ccc(C#Cc3ccccc3)cc2C=Cc2cc(C#Cc3ccccc3)ccc21` displayed an emission maximum of 375 nm.
`O=C(O)CCCOc1cccc(-c2c3nc(cc4ccc([nH]4)c(-c4cccc(OCCCC(=O)O)c4)c4nc(cc5ccc2[nH]5)C=C4)C=C3)c1`: under “in CS(C)=O”, the emission maximum is reported as 632 nm.
For `COc1ccc2c3c(c4ccc(OC)cc4c2c1)=[N+]1C(=C(c2c(C)cc(C)cc2C)c2cc4c5ccc(OC)cc5c5cc(OC)ccc5c4n2[B-]1(F)F)C=3`, the emission maximum worked out at 700 nm (in C1CCCCC1); 712 nm (in C1CCOC1); 712 nm (in CC#N); 712 nm (in Cc1ccccc1); 711 nm (in ClCCl).
Consider `CCCCN1C(=O)c2cccc3cccc(c23)C1=O`, for which the emission maximum (in Cc1ccccc1) stood at 392 nm.
Compound `CCCCCCCCCCCCOc1cc(C(=O)Nc2ccc(-c3ccc4c(c3)C(=O)c3cc(-c5ccc(NC(=O)c6cc(OCCCCCCCCCCCC)c(OCCCCCCCCCCCC)c(OCCCCCCCCCCCC)c6)cc5)ccc3-4)cc2)cc(OCCCCCCCCCCCC)c1OCCCCCCCCCCCC` gave an emission maximum (in C1CCOC1) of 542 nm.
The compound `CCCCc1ccc2c(c1)c1ccc3cccc4c3c1c1c2c2cccc3ccc5c6cc(CCCC)ccc6c4c1c5c32` returned an emission maximum (in ClCCl) of 506 nm.
The compound `CCCCN1/C(=C/C=C/C2=[N+](C)c3ccccc3C2(C)C)C(C)(C)c2c1ccc1ccccc21` returned an emission maximum (in CS(C)=O) of 586 nm.
Consider `COc1ccc(-c2cnc(/C=C/c3ccc(OC)c(OC)c3)o2)cc1`, for which, for the setting “in ClCCl”, the emission maximum is reported as 435 nm.
`OB(O)c1ccc(-c2ccc(N(c3ccccc3)c3ccccc3)cc2)cc1`: the emission maximum (in C1CCCCC1) amounted to 384 nm; the emission maximum (in C1CCOC1) is recorded as 410 nm; the emission maximum (in CCO) came out at 422.4 nm; the emission maximum (in CCOCC) is reported as 398 nm; the emission maximum (in CO) worked out at 432 nm.
Turning to `CCn1c2ccccc2c2cc(/C=C/c3cccc(/C=C/c4ccc5c(c4)c4ccccc4n5CC)[n+]3CCCS(=O)(=O)[O-])ccc21`, the emission maximum is, setting by setting: (in C1CCOC1) 581 nm; (in CC#N) 579 nm; (in CC(C)=O) 578 nm; (in Cc1ccccc1) 598 nm.
`C(=C/c1ccc(N(c2ccccc2)c2ccccc2)cc1)/c1ccc(N(c2ccccc2)c2ccccc2)cc1`: the emission maximum (in ClCCl) amounted to 441 nm.
Turning to `COc1ccc(-c2c3nc(cc4ccc([nH]4)c(-c4ccc(OC)c(OCCCC(=O)O)c4)c4nc(cc5ccc2[nH]5)C=C4)C=C3)cc1OCCCC(=O)O`, the emission maximum (in CS(C)=O) turned out to be 639 nm.
Where the note is “in CO”, `Cc1ccc2nnn(-c3c(C#N)c4c(N)ncnc4n3[C@H]3C[C@H](O)[C@@H](CO)O3)c2c1` displayed an emission maximum of 419 nm.
Turning to `COC(=O)C1CCN(c2ccc3c(N4CCCCC4)c4ccc(=[N+]5CCC(C(=O)OC)CC5)cc-4oc3c2)CC1` (stereo unspecified), for the setting “in ClCCl”, the emission maximum was 552 nm.
On the same count and under the same terms, with `COc1cc2c(cc1OC)C1=C[C@H](c3ccc(C)cc3)C3(C(C#N)=C(C#N)N1CC2)c1cc(Cl)ccc1-c1ccc(Cl)cc13` the figure was 402 nm.
Turning to `COc1ccc(-c2ncc3ccccn23)cc1`, the emission maximum (in ClC(Cl)Cl) turned out to be 469 nm.
On to `CN(C)c1cccc2c1C(=O)c1ccccc1C2=O`, for which the emission maximum is, setting by setting: (in C1CCCCC1) 566 nm; (in CC1CCCCC1) 566.5 nm; (in CC#N) 593 nm; (in CCC(C)CC) 566 nm; (in CCCCCC) 566.2 nm; (in CCOC(C)=O) 585 nm.
With `N#Cc1c(N2CCCCC2)cc(-c2cccs2)c2c1-c1cccc3cccc-2c13`, for the setting “in O”, the emission maximum is listed as 555 nm.
Where the note is “in ClC(Cl)Cl”, `COc1ccc2c(c1)SCC1=C(c3ccccc3)C3=Nc4c(-c5ccccc5)c5c(n4[B-](F)(F)[N+]3=C12)-c1ccc(OC)cc1SC5` gave an emission maximum of 730 nm.
In the case of `CCC1=C(C)C2=Cc3cc(I)c(I)n3[B-](F)(F)[N+]2=C1C`, the emission maximum is 550.5 nm (in C1CCCCC1); 552.5 nm (in CC(C)=O); 555 nm (in CCO); 551.5 nm (in CCOC(C)=O); 552 nm (in CO); 548 nm (in OCC(F)(F)F).
`c1csc(-c2cnc(-c3cccs3)c3nonc23)c1`: the emission maximum is given as 567 nm (in C1CCCCC1); 612 nm (in CC(C)=O); 564 nm (in CCCCCC); 611 nm (in CCCO); 614 nm (in CCO); 587 nm (in CCOCC). In addition, the emission maximum is, setting by setting: (in CO) 616 nm; (in Cc1ccccc1) 600 nm; (in ClC(Cl)(Cl)Cl) 580 nm; (in ClC(Cl)Cl) 611 nm; (in O=[N+]([O-])c1ccccc1) 614 nm; (in OCC(O)CO) 633 nm. In addition, the emission maximum reads like this: (in OCc1ccccc1) 628 nm; (in c1ccc2ncccc2c1) 625 nm; (in c1ccccc1) 601 nm; (in c1ccncc1) 617 nm.
In the case of `CCCCC#Cc1cccc2cc(CCCC)c3cc(-c4cc[b-]5c(c4)c(CCCC)cc4cccc(C#CCCCC)[n+]54)cc[b-]3[n+]12`, the emission maximum (in C1CCCCC1) amounted to 598 nm.
